In US20110044938A1 (NYCOMED GMBH, priority 2006, published 2011):

Key:
[1] = test system: RKO (RKOp27) human colon adenocarcinoma cells; test: Alamar Blue cell viability assay, anti-proliferative/cytotoxic activity on proliferating RKO subclones; assay type: cell-based; settings: RKOp27, 72 h, RKO p27 uninduced (proliferating) cells, value = class bound given in Table A, read-out: −logIC50 RKO p27 uninduced (proliferating) (converted)
Procedure, shortened: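 Alamar Blue fluorescence (ex 544, em 590 nm) after 72 h compound exposure at 37 °C, 5% CO2, normalised to untreated controls set at 100%. Cells were seeded at 5000 per well and dosed 24 h later with serial semi-logarithmic dilutions in 10% FCS DMEM, four replicates each. −log IC50 [mol/l] was derived from concentration-effect curves.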

[2] = test system: subclones of RKO colon adenocarcinoma cells (RKOp27 or RKOp21) arrested by Ponasterone A; test: Alamar Blue cell viability assay, cell cycle specific mode of action: cells arrested by ectopic p27Kip1 induced by Ponasterone A versus proliferating cells; assay type: cell-based; settings: Homo sapiens, RKO p27 induced (arrested) cells, 10 μM Ponasterone A, 72 hours, value = class bound given in Table A, read-out: −logIC50 RKO p27 induced (arrested) (converted)
Procedure, shortened: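 Viability of proliferating versus Ponasterone A (10 μM)-arrested RKOp27/RKOp21 cells after 72 h compound exposure at 37° C, in quadruplicate. Read-out is Alamar Blue fluorescence (544/590 nm) normalised to untreated cells = 100%; values as −log IC50.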

Row | Structure (SMILES) | IC50 [1] | IC50 [2]
1 | CCOc1ccccc1CCC(=O)Nc1sc2c(c1C#N)CCC(OC(=O)NCc1ccccc1)C2 (stereo not shown) [Example 155, Benzyl-carbamic acid 3-cyano-2-[3-(2-ethoxy-phenyl)-propanoylamino]-4,5,6,7-tetrahydro-benzo[b]thiophen-6-yl ester] | ≤ 501 nM | ≥ 100000 nM
2 | CC(CC(=O)Nc1sc2c(c1C#N)CCC(OC(=O)NCc1cccn1C)C2)c1ccccc1 (stereo not shown) [Example 300, (1-Methyl-1H-pyrrol-2-ylmethyl)-carbamic acid 3-cyano-2-(3-phenyl-butanoylamino)-4,5,6,7-tetrahydro-benzo[b] thiophen-6-yl ester] | ≤ 501 nM | ≥ 50100 nM
3 | CC(CC(=O)Nc1sc2c(c1C#N)CCC(COC(=O)NCc1ccncc1)C2)c1ccccc1 (stereo not shown) [Example 306, Pyridin-4-ylmethyl-carbamic acid 3-cyano-2-(3-phenyl-butanoyl-amino)-4,5,6,7-tetrahydro-benzo[b] thiophen-6-ylmethyl ester] | ≤ 501 nM | ≥ 50100 nM
4 | COCCOC(=O)OC1CCc2c(sc(NC(=O)/C=C/c3cccnc3)c2C#N)C1 (stereo not shown) [Example 27, Carbonic acid 3-cyano-2-((E)-3-pyridin-3-yl-allanoylamino)-4,5,6,7-tetrahydro-benzo[b]thiophen-6-yl ester 2-methoxy-ethyl ester] | ≤ 501 nM | ≥ 100000 nM
5 | CC1CCCN1C(=O)OCC1CCc2c(sc(NC(=O)/C=C/c3cccnc3)c2C#N)C1 (stereo not shown) [Example 88, 2-Methylpyrrolidine-1-carboxylic acid 3-cyano-2-((E)-3-pyridin-3-yl-allanoylamino)-4,5,6,7-tetrahydro-benzo[b]thiophen-6-ylmethyl ester] | ≤ 501 nM | ≥ 100000 nM
6 | CC(CC(=O)Nc1sc2c(c1C#N)CCC(OC(=O)NC1CCOCC1)C2)c1ccccc1 (stereo not shown) [Example 291, (Tetrahydro-pyran-4-yl)-carbamic acid 3-cyano-2-(3-phenyl-butanoyl-amino)-4,5,6,7-tetrahydro-benzo[b]thiophen-6-yl ester] | ≤ 501 nM | ≥ 10000 nM
7 | N#Cc1c(NC(=O)/C=C/c2cccnc2)sc2c1CCC(OC(=O)NC1CCC1)C2 (stereo not shown) [Example 139, Cyclobutyl-carbamic acid 3-cyano-2-((E)-3-pyridin-3-yl-allanoylamino)-4,5,6,7-tetrahydro-benzo[b]thiophen-6-yl ester] | ≤ 501 nM | ≥ 100000 nM
8 | CC(CO)NC(=O)OCC1CCc2c(sc(NC(=O)/C=C/c3cccnc3)c2C#N)C1 (stereo not shown) [Example 102, (2-Hydroxy-1-methyl-ethyl)-carbamic acid 3-cyano-2-((E)-3-pyridin-3-yl-allanoylamino)-4,5,6,7-tetrahydro-benzo[b]thiophen-6-ylmethyl ester] | 501 to 2000 nM | ≥ 100000 nM
9 | CC(CC(=O)Nc1sc2c(c1C#N)CCC(COC(=O)NCc1ccno1)C2)c1ccccc1 (stereo not shown) [Example 353, Isoxazol-5-ylmethyl-carbamic acid 3-cyano-2-(3-phenyl-butanoylamino)-4,5,6,7-tetrahydro-benzo[b] thiophen-6-ylmethyl ester] | ≤ 501 nM | ≥ 100000 nM
10 | Cn1cccc1CNC(=O)OCC1CCc2c(sc(NC(=O)/C=C/c3cccnc3)c2C#N)C1 (stereo not shown) [Example 51, (1-Methyl-1H-pyrrol-2-ylmethyl)-carbamic acid 3-cyano-2-((E)-3-pyridin-3-yl-allanoylamino)-4,5,6,7-tetrahydro-benzo[b]thiophen-6-ylmethyl ester] | 501 to 2000 nM | ≥ 100000 nM
11 | CCOc1ccccc1CCC(=O)Nc1sc2c(c1C#N)CCC(COC(=O)NCc1csc(C)n1)C2 (stereo not shown) [Example 213, (2-Methyl-thiazol-4-ylmethyl)-carbamic acid 3-cyano-2-[3-(2-ethoxy-phenyl)-propanoylamino]-4,5,6,7-tetrahydro-benzo[b]thiophen-6-ylmethyl ester] | ≤ 501 nM | ≥ 100000 nM
12 | CCOc1ccccc1/C=C/C(=O)Nc1sc2c(c1C#N)CCC(COC(=O)NCCO)C2 (stereo not shown) [Example 28, (2-Hydroxy-ethyl)-carbamic acid 3-cyano-2-[(E)-3-(2-ethoxy-phenyl)-allanoylamino]-4,5,6,7-tetrahydro-benzo[b]thiophen-6-ylmethyl ester] | 501 to 2000 nM | ≥ 100000 nM
13 | CC(CC(=O)Nc1sc2c(c1C#N)CCC(OC(=O)NCC1CCOCC1)C2)c1ccccc1 (stereo not shown) [Example 267, (Tetrahydro-pyran-4-ylmethyl)-carbamic acid 3-cyano-2-(3-phenyl-butanoylamino)-4,5,6,7-tetrahydro-benzo[b]thiophen-6-yl ester] | ≤ 501 nM | ≥ 50100 nM
14 | Cc1ccncc1/C=C/C(=O)Nc1sc2c(c1C#N)CCC(COC(=O)N1CCCC1)C2 (stereo not shown) [Example 130, Pyrrolidine-1-carboxylic acid 3-cyano-2-[(E)-3-(4-methyl-pyridin-3-yl)-allanoylamino]-4,5,6,7-tetrahydro-benzo[b]thiophen-6-ylmethyl ester] | ≤ 501 nM | ≥ 100000 nM
15 | CN(C(=O)OCC1CCc2c(sc(NC(=O)/C=C/c3cccnc3)c2C#N)C1)C1CCCC1 (stereo not shown) [Example 138, Cyclopentyl-methyl-carbamic acid 3-cyano-2-((E)-3-pyridin-3-yl-allanoylamino)-4,5,6,7-tetrahydro-benzo[b]thiophen-6-ylmethyl ester] | 501 to 2000 nM | ≥ 100000 nM
16 | N#Cc1c(NC(=O)/C=C/c2cccnc2)sc2c1CCC(COC(=O)N1CCCCO1)C2 (stereo not shown) [Example 117, [1,2]Oxazinane-2-carboxylic acid 3-cyano-2-((E)-3-pyridin-3-yl-allanoylamino)-4,5,6,7-tetrahydro-benzo[b]thiophen-6-ylmethyl ester] | ≤ 501 nM | ≥ 100000 nM
17 | N#Cc1c(NC(=O)/C=C/c2cccnc2)sc2c1CCC(COC(=O)NCCn1ccnc1)C2 (stereo not shown) [Example 30, (2-Imidazol-1-yl-ethyl)-carbamic acid-3-cyano-2-((E)-3-pyridin-3-yl-allanoylamino)-4,5,6,7-tetrahydro-benzo[b]thiophen-6-ylmethyl ester] | 501 to 2000 nM | ≥ 100000 nM
18 | CCNC(=O)OC[C@@H]1CCc2c(sc(NC(=O)/C=C/c3cccnc3)c2C#N)C1 [Example 9b, (R)-Ethyl-carbamic acid 3-cyano-2-((E)-3-pyridin-3-yl-allanoylamino)-4,5,6,7-tetrahydro-benzo[b]thiophen-6-ylmethyl ester] | ≤ 501 nM | ≥ 100000 nM
19 | N#Cc1c(NC(=O)/C=C/c2cccnc2)sc2c1CCC(OC(=O)N1CCCC1)C2 (stereo not shown) [Example 62, Pyrrolidine-1-carboxylic acid 3-cyano-2-((E)-3-pyridin-3-yl-allanoylamino)-4,5,6,7-tetrahydro-benzo[b]thiophen-6-yl ester] | ≤ 501 nM | ≥ 100000 nM
20 | CCn1nccc1CNC(=O)OCC1CCc2c(sc(NC(=O)CC(C)c3ccccc3)c2C#N)C1 (stereo not shown) [Example 322, (2-Ethyl-2H-pyrazol-3-ylmethyl)-carbamic acid 3-cyano-2-(3-phenyl-butanoylamino)-4,5,6,7-tetrahydro-benzo[b] thiophen-6-ylmethyl ester] | ≤ 501 nM | ≥ 50100 nM
21 | CN(CC(O)CO)C(=O)OC1CCc2c(sc(NC(=O)/C=C/c3cccnc3)c2C#N)C1 (stereo not shown) [Example 126, (2,3-Dihydroxy-propyl)-methyl-carbamic acid 3-cyano-2-((E)-3-pyridin-3-yl-allanoylamino)-4,5,6,7-tetrahydro-benzo[b]thiophen-6-yl ester] | 501 to 2000 nM | ≥ 100000 nM
22 | CC(CC(=O)Nc1sc2c(c1C#N)CCC(OC(=O)OCc1cncs1)C2)c1ccccc1 (stereo not shown) [Example 375, Carbonic acid 3-cyano-2-(3-phenyl-butanoyl-amino)-4,5,6,7-tetrahydro-benzo[b] thiophen-6-yl ester thiazol-5-ylmethyl ester] | ≤ 501 nM | ≥ 10000 nM
23 | CCn1nccc1CNC(=O)OCC1CCc2c(sc(NC(=O)/C=C/c3cccnc3)c2C#N)C1 (stereo not shown) [Example 52, (2-Ethyl-2H-pyrazol-3-ylmethyl)-carbamic acid 3-cyano-2-((E)-3-pyridin-3-yl-allanoylamino)-4,5,6,7-tetrahydro-benzo[b]thiophen-6-ylmethyl ester] | 501 to 2000 nM | ≥ 100000 nM
24 | COc1cccc(C(C)CC(=O)Nc2sc3c(c2C#N)CCC(COC(=O)NCc2cnn(C)c2)C3)c1 (stereo not shown) [Example 333, (1-Methyl-1H-pyrazol-4-ylmethyl)-carbamic acid 3-cyano-2-[3-(3-methoxy-phenyl)-butanoylamino]-4,5,6,7-tetrahydro-benzo[b]thiophen-6-ylmethyl ester] | 501 to 2000 nM | ≥ 10000 nM
25 | COc1cccc(C(C)CC(=O)Nc2sc3c(c2C#N)CCC(COC(=O)NCC2CCOCC2)C3)c1 (stereo not shown) [Example 328, (Tetrahydro-pyran-4-ylmethyl)-carbamic acid 3-cyano-2-[3-(3-methoxy-phenyl)-butanoyl-amino]-4,5,6,7-tetrahydro-benzo[b]thiophen-6-ylmethyl ester] | 501 to 2000 nM | ≥ 50100 nM
26 | N#Cc1c(NC(=O)/C=C/c2cccnc2)sc2c1CCC(OC(=O)NCc1ccccc1)C2 (stereo not shown) [Example 2, Benzyl-carbamic acid 3-cyano-2-((E)-3-pyridin-3-yl-allanoylamino)-4,5,6,7-tetrahydro-benzo[b]thiophen-6-yl ester] | 501 to 2000 nM | ≥ 10000 nM
